Patent publication US20190054109A1, “An antiviral composition and a method for application thereof” (ALLA CHEM, LLC, priority 2017, published 2019)
≈ marks a conversion by molar mass, not a printed value. Entries after “also recorded” stand apart in the source; their conditions may differ. Like-named read-outs stand apart in the source and are kept apart here.

What was measured:
[1] = Pharmacokinetics of triphosphate PSI-7409 in rat liver after peroral administration; type: in vivo, Sprague Dawley rats; conditions: comparison of Cmax and AUC24h in rat liver
Protocol: The tested composition was administered at a dose of 50 mg/kg. To this end, compositions were prepared with a concentration of prodrug 1.1 or Sovaldi® of 5.0 mg/ml in a 0.5% solution of hydroxypropyl methylcellulose (HPMC), to which 5% ethanol was added, as follows: to a weighed portion of the prodrug of formula 1.1 or Sovaldi®, an appropriate amount of HPMC was added, and the mixture was triturated dry in a mortar, whereafter a proper quantity of 5% ethanol in distilled water was gradually added portionwise, and the mixture was carefully stirred to obtain a suspension suitable for intragastric administration.
The study was carried out on Sprague Dawley rats. The rats were divided into groups of 6 based on selected time points (1, 2, 4, 6, 8, 10, 12, 16, and 24 h). The rats were weighed, and the volume of compositions comprising the prodrug of formula 1.1 or Sovaldi® was calculated for each animal at a rate of 10 ml/kg. Compositions comprising the prodrug of formula 1.1 or Sovaldi® were administered intragastrically through a feeding tube. […]
Samples were analyzed using an HPLC-MS/MS technique, wherein the HPLC system Agilent 1290 Infinity II was combined with the AB Sciex QTrap 5500 mass spectrometer. […] PSI-7409 and H027-4261 were recorded in MRM mode with ion transitions of 499/159 and 410/150, respectively. […]

[2] = Kinetic solubility (MultiScreen Solubility filter plate, UV); type: physicochemical; conditions: aqueous buffer with 2% DMSO, kinetic from dmso stock, 260 nm
Protocol: The tested compound was dissolved in DMSO to reach a 10-mM concentration and then poured into an aqueous solvent (a phosphate buffer, water, or universal buffers of different pH values) to bring the concentration down to 200 μM. The resulting solution placed in a 96-well filter plate (Millipore's MultiScreen Solubility Filter Plate) was incubated for an hour at room temperature on a shaker, and the residue was filtered off in vacuo. The absorption spectrum of the compound was recorded on a spectrophotometer in a range of 240-400 nm with a 10-nm increment. […] The range of estimated concentrations was 3-200 μM. The test procedure was performed in duplicate.
Six standard samples with concentrations of 0, 3.125, 12.5, 50, 100, and 200 μM were prepared in the wells of a UV 96-well plate by adding 4 μl of corresponding 50× stock solutions in DMSO to 196 μl of a buffer comprising 40% acetonitrile. The concentration of DMSO in all points was constant and equal to 2% (v/v).
To plot calibration curves, the optical spectrum of the UV plate was recorded in a wavelength range of 250 400 nm with a 10-nm increment. Based on the spectral data for each compound, wavelengths were selected to meet the following criteria:
For minimum compound concentration, OD>0.1 (AU);
For maximum compound concentration, OD<2.0.
For each compound, a calibration curve was plotted with OD at selected wavelength as a function of concentration.
Solubility was evaluated in a MultiScreen Solubility (Millipore Corp.) filter plate as follows:
Into each well of the MultiScreen Solubility filter plate, 196 μl of a buffer (without acetonitrile) and 4 μl of a 10-mM compound in DMSO or 4 μl of DMSO (for a blank matrix) were added. The plate was incubated for one hour on a shaker (400 rpm) at room temperature.
The resulting solutions were filtered off through the filter plate by means of vacuum (10″ Hg) into a polypropylene plate with a U-shaped bottom.
From the U-bottom plate, the filtrate (120 μl/well) was transferred into a new UV plate, where to acetonitrile (80 μl/well) was added.
The optical density of resulting solutions for a pre-selected wavelength was measured for each compound.
The final compound concentration in the filtrate was computed as follows:
Cfiltrate=(ODλFiltrate-ODλBlank)/Slope×1.67,

In the case of C[C@H](N[P@](=O)(OC[C@H]1O[C@@H](n2ccc(=O)[nH]c2=O)[C@](C)(F)[C@@H]1O)Oc1ccccc1)C(=O)OC1CCC1 [Prodrug 1.1, cyclobutyl (S)-2-{(S)-[(2R,3R,4R,5R)-5-(3,4-dihydro-2,4-dioxo-2H-pyrimidin-1-yl)-3-hydroxy-4-methyl-4-fluoro-tetrahydro-furan-2-ylmethoxy]-phenoxy-phosphorylamino}-propanoate], the “effectiveness of liver metabolism into triphosphate PSI-7409 relative to Sovaldi” value [1] was “almost twice more effective; also recorded: almost two times more effectively”, the solubility at 1 h ([2]; pH 2, aqueous buffer, recrystallized from acetic acid, polycrystal, read-out: Solubility at pH 2) was 630 µg/mL (≈ 1160 µM) and the solubility at 1 h ([2]; pH 2, aqueous buffer, recrystallized from dimethyl sulfoxide, crystal, read-out: Solubility at pH 2) was 180 µg/mL (≈ 332 µM). It also gave a solubility at 1 h ([2]; pH 2, aqueous buffer, recrystallized from ethanol, polycrystal, read-out: Solubility at pH 2) of 200 µg/mL (≈ 369 µM), a solubility at 1 h ([2]; pH 2, aqueous buffer, recrystallized from ethyl acetate and methyl-tert-butyl ether mixture, polycrystal, read-out: Solubility at pH 2) of 250 µg/mL (≈ 462 µM) and a solubility at 1 h ([2]; pH 2, aqueous buffer, recrystallized from ethyl acetate, polycrystal, read-out: Solubility at pH 2) of 220 µg/mL (≈ 406 µM). It also gave a solubility at 1 h ([2]; pH 7, aqueous buffer, recrystallized from acetic acid, polycrystal, read-out: Solubility at pH 7) of 670 µg/mL (≈ 1240 µM), a solubility at 1 h ([2]; pH 7, aqueous buffer, recrystallized from dimethyl sulfoxide, crystal, read-out: Solubility at pH 7) of 180 µg/mL (≈ 332 µM) and a solubility at 1 h ([2]; pH 7, aqueous buffer, recrystallized from ethanol, polycrystal, read-out: Solubility at pH 7) of 200 µg/mL (≈ 369 µM). For the same molecule, the solubility at 1 h ([2]; pH 7, aqueous buffer, recrystallized from ethyl acetate and methyl-tert-butyl ether mixture, polycrystal, read-out: Solubility at pH 7) was 240 µg/mL (≈ 443 µM) and the solubility at 1 h ([2]; pH 7, aqueous buffer, recrystallized from ethyl acetate, polycrystal, read-out: Solubility at pH 7) was 220 µg/mL (≈ 406 µM).
